Earlier results as cited in patent publication US20020004584A1, “HIV immune adjuvant therapy” (priority 2000, published 2002).

Key:
[1] = system: HIV-1; conditions: preclinical studies
[2] = in vivo
[3] = in vivo; remark: listed apart in the source

## NC(=O)NO [Hydroxyurea]
[1]
  effect on the activity of didanosine: synergistic effect

## CC(C)c1nc(CN(C)C(=O)N[C@H](C(=O)N[C@@H](Cc2ccccc2)C[C@H](O)[C@H](Cc2ccccc2)NC(=O)OCc2cncs2)C(C)C)cs1 [Ritonavir, ritonavir]
[2]
  adverse effects: troublesome adverse effects

## CC(C)(C)NC(=O)[C@@H]1C[C@@H]2CCCC[C@@H]2CN1C[C@@H](O)[C@H](Cc1ccccc1)NC(=O)[C@H](CC(N)=O)NC(=O)c1ccc2ccccc2n1 [saquinavir]
[3]
  bioavailability: poor bioavailability
